Test results published in ChEMBL document CHEMBL5226375, “Synthesis and Comprehensive in Vivo Activity Profiling of Olean-12-en-28-ol, 3β-Pentacosanoate in Experimental Autoimmune Encephalomyelitis: A Natural Remyelinating and Anti-Inflammatory Agent” (J Nat Prod, 2023).

Tests used:
Format in all cases: functional
[1] = test system: Mus musculus; test: Anti-inflammatory activity against MOG35-55-induced experimental autoimmune encephalomyelitis C57BL/6 mouse model assessed as fold change in CXCL10 gene expression in brain at 0.15 mg/kg/day, ig for 14 days starting from 12th day of immunization by RT-qPCR analysis relative to control; details: time 14 day
[2] = test system: Mus musculus; test: Anti-inflammatory activity against MOG35-55-induced experimental autoimmune encephalomyelitis C57BL/6 mouse model assessed as fold change in MMP9 gene expression in brain at 0.3 mg/kg/day, ig for 14 days starting from 12th day of immunization by RT-qPCR analysis relative to control; details: time 14 day
[3] = test system: Mus musculus; test: Anti-inflammatory activity against MOG35-55-induced experimental autoimmune encephalomyelitis C57BL/6 mouse model assessed as methylation of CpG sites of IL17A gene promoter in brain at […], ig for 14 days starting from 12th day of immunization by PCR analysis (reference value: 58 +/-6%); details: time 14 day
[4] = test system: Mus musculus; test: Anti-inflammatory activity against MOG35-55-induced experimental autoimmune encephalomyelitis C57BL/6 mouse model assessed as fold change in BCL2 gene expression in brain at 0.3 mg/kg/day, ig for 14 days starting from 12th day of immunization by RT-qPCR analysis relative to control; details: time 14 day
[5] = test system: Mus musculus; test: Anti-inflammatory activity against MOG35-55-induced experimental autoimmune encephalomyelitis C57BL/6 mouse model assessed as fold change in IL6 gene expression in brain at 0.3 mg/kg/day, ig for 14 days starting from 12th day of immunization by RT-qPCR analysis relative to control; details: time 14 day
[6] = test system: Mus musculus; test: Anti-inflammatory activity against MOG35-55-induced experimental autoimmune encephalomyelitis C57BL/6 mouse model assessed as methylation of CpG sites of IL11 gene promoter in brain at 600 mg/kg, ig for 14 days starting from 12th day of immunization by PCR analysis (reference value: 61.1 +/-4%); details: time 14 day
[7] = test system: Mus musculus; test: Anti-inflammatory activity against MOG35-55-induced experimental autoimmune encephalomyelitis C57BL/6 mouse model assessed as methylation of CpG sites of SOCS5 gene promoter in brain at 600 mg/kg, ig for 14 days starting from 12th day of immunization by PCR analysis (reference value: 10.6 +/-4%); details: time 14 day
[8] = test system: Mus musculus; test: Anti-inflammatory activity against MOG35-55-induced experimental autoimmune encephalomyelitis C57BL/6 mouse model assessed as fold change in H2EB1 (HLA-DRB1) gene expression in brain at 300 mg/kg/day, ig for 14 days starting from 12th day of immunization by RT-qPCR analysis relative to control; details: time 14 day
[9] = test system: Mus musculus; test: Anti-inflammatory activity against MOG35-55-induced experimental autoimmune encephalomyelitis C57BL/6 mouse model assessed as fold change in TNF-alpha gene expression in brain at 600 mg/kg/day, ig for 14 days starting from 12th day of immunization by RT-qPCR analysis relative to control; details: time 14 day
[10] = test system: Mus musculus; test: Anti-inflammatory activity against MOG35-55-induced experimental autoimmune encephalomyelitis C57BL/6 mouse model assessed as reduction in MMP9 protein expression in brain at 300 to 600 mg/kg/day, ig for 14 days starting from 12th day of immunization by western blot analysis relative to control; details: dose 300-600 mg/kg/day, time 14 day

| Compound | fold change (FC) [1] | fold change (FC) [2] | Activity [3] [%] | fold change (FC) [4] | fold change (FC) [5] | Activity [6] [%] | Activity [7] [%] | fold change (FC) [8] | fold change (FC) [9] | fold change (FC) [10] |
| --- | --- | --- | --- | --- | --- | --- | --- | --- | --- | --- |
| CCCCCCCCc1ccc(CCC(N)(CO)CO)cc1 [FINGOLIMOD] | 5.21 | 4.44 | 58.9 | 2.12 | -2.28 |  |  |  |  |  |
| CCCCCCCCCCCCCCCCCCCCCCCCC(=O)O[C@H]1CC[C@]2(C)[C@H]3CC=C4[C@@H]5CC(C)(C)CC[C@]5(CO)CC[C@@]4(C)[C@]3(C)CC[C@H]2C1(C)C |  |  |  |  |  | 41.4 | 9.3 | 2.83 | 1.52 | 2 |
